Experimental data reported in patent US20220233457A1 (DAEGU CATHOLIC UNIVERSITY INDUSTRY ACADEMIC COOPERATION …, priority 2021, published 2022).
Entries after “also recorded” stand apart in the source; their conditions may differ.

Tests used:
[1] = system: MMP-9; test: MMP-9 expression in cerebral arterial wall (IHC, real-time PCR, Western blot); format: in vivo, mouse; conditions: compared to diseased group (D); for expression level of MMP-9 protein: Western blot; for MMP-9 expression in the cerebral arterial wall: immunohistochemistry staining, levels 0 to 2
Method: (§1) A male C57BL/6J mouse was purchased from Samtako Bio Korea, and, after acclimation for about 1 week, the healthy animals were housed in a polycarbonate cage with random allocation to each test group. Environmental condition for breeding includes a temperature of 22±3° C., relative humidity of 50±10%, lighting hour of 12 hours, and illuminance of 150 to 300 lux. The animals were allowed free access to food and water. Hypertension was induced by a high salt diet, unilateral nephrectomy, and subcutaneous pump infusion of angiotensin II.
(§2) Specifically, a male C57BL/6J mouse was anesthetized with isoflurane gas and the left kidney was removed by surgery. One week after the surgery, the mouse was fixed onto a nose cone, anesthetized with isoflurane gas by inhalation, and then fixed on a stereostatic system. By using a 10 μl Hamilton syringe, 10 μl of 1.0 U elastase solution was injected to the right cistern to induce cerebral aneurysm. For elastase injection, 1.0 U elastase was injected through a hole on the right skull, under anesthetization with isoflurane gas by inhalation, by pushing the syringe to a space of cerebrospinal fluid in the right bottom, 2.5 mm behind the bregma (parietal point) and 1.0 mm to the right of the center line, and elastase was injected to the depth of 5.0 min.
(§3) After that, to have a continuous infusion of angiotensin II, an osmotic pump was subcutaneously inserted (1000 ng/kg/min) and cerebral aneurysm was induced by performing a high salt diet (8% NaCl, Enbigo) for 14 days (FIG. 2).
(§4) To the all test groups, the pharmaceutical was administered in an amount of 0.1 ml.
(§5) By using the brain tissues harvested in above Example 2, a change in the expression level of MMP-9 in the cerebral arterial wall was determined by immunohistochemistry (IHC) staining. The result was classified into level 0 to level 2 and subjected to statistical analysis, while it was measured by real-time PCR and Western blot.
(§6) For the real-time PCR performed in above Examples 4 to 6, the primers described in the following Table 1 were used.

[2] = system: NFκB; test: NFκB expression in cerebral arterial wall (real-time PCR, Western blot); format: in vivo, mouse; conditions: compared to group induced to have cerebral aneurysm; for expression level of NFκB protein: Western blot; for expression level of NFκB gene: real-time PCR
[3] = system: RAW 264.7 cells; test: Cytotoxicity, MTT assay; format: cell-based; conditions: for concentration at which cell viability is lowered by cytotoxicity: MTT assay, treatment time not stated in Example 7; for melittin concentration at which cell viability was significantly decreased: RAW 264.7 cells, 0.1-4 μg/ml tested
[4] = system: mouse induced to have a cerebral aneurysm; test: H&E staining of cerebral arteries (diameter, thickness) in animal model induced to have a cerebral aneurysm; format: in vivo; conditions: compared to diseased group (D); via tail vein, 5 times every three days; brain harvested at week 4
Method: as §1, §2, §3
To the all test groups, the pharmaceutical was administered in an amount of 0.1 ml. […]
According to the visualization of cell nucleus, cytoplasm, and extracellular matrix by H&E staining of cerebral artery tissues, a change in the structure and shape of the cerebral artery was analyzed. To examine a change in the brain arterial wall, an immunohistochemical microscopic image was scanned and the diameter and thickness of the artery were measured by using Case Viewer software.

[5] = system: mouse induced to have a cerebral aneurysm; test: Trichrome staining, collagen content of cerebral artery wall; format: in vivo; conditions: via tail vein, week 4
Method: as §1
as §2, with “[…]. […]” for “min.”

[6] = Stability of melittin solution on storage; format: physicochemical; conditions: 0.36 mM (=1.0 mg/ml) melittin solution, 4° C. for 8 weeks
[7] = system: MCP-1; test: MCP-1 expression in cerebral arterial wall (IHC, real-time PCR, Western blot); format: in vivo, mouse; conditions: compared to diseased group (D); for expression level of MCP-1 protein: Western blot; for expression level of MCP-1 in the cerebral arterial wall: immunohistochemistry staining, levels 0 to 2
Method: as §1, §2, §3, §4
as §5, with “MCP-1 and CD68” for “MMP-9”
as §6

[8] = system: CD68; test: CD68 (macrophage marker) expression in cerebral arterial wall (IHC); format: in vivo, mouse; conditions: immunohistochemistry staining, levels 0 to 2; compared to diseased group (D)
Method: as §1
Specifically, a male C57BL/6J mouse was anesthetized with isoflurane gas and the left kidney was removed by surgery. One week after the surgery, the mouse was fixed onto a nose cone, anesthetized with isoflurane gas by inhalation, and then fixed on a stereostatic system. By using a 10 μl Hamilton syringe, 10 μl of 1.0 U elastase solution was injected to the right cistern to induce cerebral aneurysm. […]
as §5, with “MCP-1 and CD68” for “MMP-9”

[9] = system: TNF-α; test: TNF-α expression in cerebral arterial wall (IHC, real-time PCR, Western blot); format: in vivo, mouse; conditions: for expression level of TNF-α protein: Western blot; for expression level of TNF-α protein / expression level of TNF-α gene: compared to group induced to have cerebral aneurysm; for expression level of TNF-α in cerebral arterial wall: immunohistochemistry staining, levels 0 to 2, compared to diseased group (D); for expression level of TNF-α gene: real-time PCR
Method: as §1, §2, §3, §4
as §5, with “TNF-α” for “MMP-9”, “blot assays.” for “blot.”
as §6

[10] = system: mouse induced to have a cerebral aneurysm; test: Verhoff Van Gieson staining, elastin content of cerebral arterial wall; format: in vivo; conditions: healthy group 37.6±8.8%, diseased group 5.9±3.7%; via tail vein; week 4
Method: as §1
as §2, with “[…]. […]” for “min.”
Elastin content was analyzed by Verhoff Van Gieson staining technique.

[11] = system: mouse blood; test: Hemolysis test; format: cell-based; conditions: at 50 μg/mL

Compound	expression level of MMP-9 protein [1]	MMP-9 expression in the cerebral arterial wall [1]	expression level of NFκB protein [2]	expression level of NFκB gene [2]	concentration at which cell viability is lowered by cytotoxicity [3] [ng/mL]	thickness of cerebral arteries [4]	expression level of MCP-1 protein [7]	expression level of MCP-1 in the cerebral arterial wall [7]	expression level of CD68 in the cerebral arterial wall [8]	expression level of TNF-α protein [9]	expression level of TNF-α in cerebral arterial wall [9]	expression level of TNF-α gene [9]	elastin content [10] [%]	other results
CC[C@H](C)[C@H](NC(=O)CN)C(=O)NCC(=O)N[C@@H](C)C(=O)N[C@H](C(=O)N[C@@H](CC(C)C)C(=O)N[C@@H](CCCCN)C(=O)N[C@H](C(=O)N[C@@H](CC(C)C)C(=O)N[C@H](C(=O)N[C@H](C(=O)NCC(=O)N[C@@H](CC(C)C)C(=O)N1CCC[C@H]1C(=O)N[C@@H](C)C(=O)N[C@@H](CC(C)C)C(=O)N[C@H](C(=O)N[C@@H](CO)C(=O)N[C@@H](Cc1c[nH]c2ccccc12)C(=O)N[C@H](C(=O)N[C@@H](CCCCN)C(=O)N[C@@H](CCCNC(=N)N)C(=O)N[C@@H](CCCCN)C(=O)N[C@@H](CCCNC(=N)N)C(=O)N[C@@H](CCC(N)=O)C(=O)N[C@@H](CCC(N)=O)C(N)=O)[C@@H](C)CC)[C@@H](C)CC)[C@@H](C)O)[C@@H](C)O)C(C)C)C(C)C [MEL, melittin]	lower	suppressed	lower	lower	≥ 500	increase	lower	suppressed	suppressed	lower	suppressed	lower	19.7±7.8	collagen content compared to the diseased group (D) ([5]; statistical comparison with diseased group): no statistical difference; stability of solution [6]: stably maintained
MeLioN: iron oxide nanoparticle loaded with melittin, formed by linking iron oxide nanoparticle, L-arginine, and melittin	lower	suppressed	lower	lower	> 4000	increase; also recorded: significantly greater	lower	suppressed	suppressed	lower	suppressed	lower	34.9±6.2	expression level of MMP-9 gene ([1]; real-time PCR): lower; melittin concentration at which cell viability was significantly decreased ([3]; 12 h treatment): > 4 µg/mL; melittin concentration at which cell viability was significantly decreased ([3]; 24 h treatment): > 4 µg/mL; Hemolysis [11]: approximately 10%; diameter of cerebral arteries [4]: statistically significant decrease; also recorded: significantly smaller; collagen content ([5]; normal group 8.7±3.8%, diseased group 32.0±5.5%): 12.6±5.1%; expression level of MCP-1 gene ([7]; real-time PCR): lower
